Results taken from publication PMC10669129 (2023).

Experiments:
[1] = system: 5-HT-binding DNA aptamer (44-mer) (DNA, aptamer) CGACTGGTAGGCAGATAGGGGAAGCTGATTCGATGCGTGGGTCG; assay: square wave voltammetry; conditions: Mg2+ 2 mM, 1X PBS; apparent; 30 min exposure in 1X PBS; read in ferri/ferrocyanide 5 mM, pH 7.1; Hill fit
[2] = system: 5-HT-binding DNA aptamer (44-mer) (DNA, aptamer) CGACTGGTAGGCAGATAGGGGAAGCTGATTCGATGCGTGGGTCG; assay: electrochemical impedance spectroscopy; conditions: Mg2+ 2 mM, 1X PBS; apparent; 30 min exposure in 1X PBS; read in ferri/ferrocyanide 5 mM, pH 7.1; Hill fit
[3] = system: 5-HT-binding DNA aptamer (44-mer) (DNA, aptamer) CGACTGGTAGGCAGATAGGGGAAGCTGATTCGATGCGTGGGTCG; assay: EIS and SWV; single-frequency EIS; conditions: Mg2+ 2 mM, 1X PBS; selectivity test; highest concentration not given in text
[4] = system: 5-HT-binding DNA aptamer (44-mer) (DNA, aptamer) CGACTGGTAGGCAGATAGGGGAAGCTGATTCGATGCGTGGGTCG; assay: single-frequency EIS; conditions: Mg2+ 2 mM, 1X PBS; some cross-reactivity; microfluidic flow; concentration not given

SMILES | binding [3] | binding [4] | other results
NCCc1c[nH]c2ccc(O)cc12 |  |  | kd,eff [1]: 306.76 ± 41.54 nM; kd,eff [2]: 343.54 ± 61.03 nM
NCCc1ccc(O)c(O)c1 | no |  | 
NC[C@H](O)c1ccc(O)c(O)c1 | no |  | 
N[C@@H](Cc1c[nH]c2ccccc12)C(=O)O |  | weak | 

Continued, in another order:

binding [3] | binding [4] | SMILES | other results
 | weak | N[C@@H](Cc1c[nH]c2ccc(O)cc12)C(=O)O | 
 | weak | O=C(O)Cc1c[nH]c2ccc(O)cc12 | 
